Assay results published in US5609897A, “Powdered beverage concentrate or additive fortified with calcium and vitamin D” (priority 1995, dated 1997).
Where a name gives a salt, the structure may show the parent alone. Read-outs that look alike come from different tables or passages of the source.

Legend:
yeasts and molds = conditions: pH 4.5 to 3.0; cited from earlier work
[1] = rats, 3 weeks, right femur calcium, as compared to a control; cited from earlier work
[2] = without aluminum-containing drugs, normal kidneys; cited from earlier work
[3] = cited from earlier work
[4] = humans; cited from earlier work
[5] = Titratable acidity of calcium sources; assay type: physicochemical; conditions: from pH 3.5 to pH 8.3, 40 g sample
Excerpt: Acidity is desired in the liquid nutritional product of the present invention for several reasons such as: to maintain the calcium salt solubility, to complement flavor, to control microbial growth, and to enhance the role of preservatives, specifically potassium benzoate or sodium benzoate. On the other hand, too much acidity can result in increased tartness and sourness that make the product undesirable from a sensory point of view. […] Titratable acidity is an indication of the total acidity of a beverage.

[6] = cited from earlier work; remark: listed apart in the source
[7] = piglets; cited from earlier work
[8] = low birth weight infants; cited from earlier work
[9] = pH 3.5
Experimental: In this evaluation solubility was determined by a visual examination.

O=C(O)c1ccccc1 [benzoic acid]
preservative effect on reducing pH from 4.5 to 3.0 (yeasts and molds): increased by nearly three times

O=C(O)CC(O)(CC(=O)O)C(=O)O [Calcium Citrate, calcium citrate]
Relative calcium bioavailability [1]: 110% | Risk of aluminum toxicity [2]: does not pose a risk of aluminum toxicity

O=P([O-])([O-])[O-].O=P([O-])([O-])[O-].[Ca+2].[Ca+2].[Ca+2] [Tricalcium Phosphate, tricalcium phosphate]
Relative calcium bioavailability [1]: 110%

vitamin D
calcium balance and fracture risk ([3]; 600-800 IU/day): improve calcium balance and reduce fracture risk | risks of excessive doses ([3]; excessive doses): hypercalciuria and hypercalcemia

Calcium Citrate Malate
Calcium absorption [4]: 38.3% | Titratable acidity [5]: 53.2 mL of 0.1N NaOH

O=C(O)O [Calcium Carbonate, calcium carbonate]
Calcium absorption [4]: 29.6% | adverse effects of large amounts [6]: constipation and abdominal distention

Calcium Glycerophosphate [CaGP]
Efficacy as source of calcium in TPN [7]: as effective as calcium gluconate | Efficacy as source of calcium in TPN [8]: as effective as calcium gluconate | Titratable acidity [5]: 43.5 mL of 0.1N NaOH

O=C(O)[C@H](O)[C@@H](O)[C@H](O)[C@H](O)CO [D-Gluconic-Acid, D-gluconic acid (hemicalcium salt)]
Solubility [9]: soluble | Solubility over one month [9]: remained soluble at pH 3.5 for at least one month
